Measurements as given in US9247759B2, “Identification of human T2R receptors that respond to bitter compounds that elicit the bitter taste in compositions, and the use thereof in assays to identify compounds that inhibit (block) bitter taste in compositions and use thereof” (SENOMYX, INC., priority 2007, dated 2016).
pIC50: −log10 of the molar value. Where two headings read alike, the source gives them in different places. One block for each compound: values may come before it.

How the values were obtained:
[1] = target: T1, hT2R14 (Homo sapiens (Human), UniProt Q9NYV8); assay: hT2R panel inhibition, transient HEK293 G16g44, agonist Aristolochic Acid 2 μM; type: cell-based; settings: HEK293, compound at 25 μM; receptor activated to EC80 with agonist; read-out: inhibition of bitter receptor 14
Description: (§1) Specifically, in order to evaluate the inhibitory selectivity of the Compound C compound, this compound was tested against 22 human T2Rs which were deorphaned by Senomyx. These receptors and the bitter ligands that activate these human T2Rs are reported in earlier patent applications which are incorporated by reference herein. These 22 human T2Rs are hT2R1, 3, 4, 5, 7, 8, 9, 10, 13, 14, 16, 44, 51, 54, 55, 61, 63, 64, 65, 67, 71 and 75. The amino acid and nucleic acid sequences of all of these T2Rs may be found in these earlier patent applications. These human T2Rs were each individually transiently transfected into HEK293 cells that stably express the promiscuous G protein G16g44 and functional assays were effected using these receptors as disclosed in these same patent applications. […] The ligands were used at EC80 concentration levels. The list of bitter ligands utilized and the tested ligand concentrations are contained in Table 5 of this example.

[2] = target: hT2R64 (Homo sapiens (Human), UniProt P59538); assay: hT2R panel inhibition, transient HEK293 G16g44, agonist Aristolochic Acid 1 μM; type: cell-based; settings: HEK293, compound at 25 μM
Description: as §1
(§2) Relating to the foregoing, FIG. 5 contains experimental results wherein Compound C was tested with different agonist compounds. The inhibition activity is represented by the reduction of receptor activity in the presence of Compound C. […] These 13 hT2Rs are hT2R3, 7, 10, 14, 16, 44, 51, 55, 61, 63, 64, 65, and 71.

[3] = target: T1, hT2R14; assay: hT2R14 antagonist high-throughput FLIPR assay, stable cell line with G16g44, agonist aristolochic acid; type: cell-based
Description: The inventors also used the automated fluorimetric […] system FLIPR using a slightly different protocol. A HEK293 cell line stably expressing G16gust44 was transfected with a hT2R expression plasmid, 24 hours later, the cells are loaded and analyzed on FLIPR.
After a ligand is identified for a particular hT2R, a HEK293 cell line stably expressing both the hT2R and G16gust44 are generated, facilitating future screening assays to identify other ligands that activate the particular hT2R or which modulate (block or enhance) the activation of this hT2R by another bitter ligand such as a bitter compound contained in coffee. This avoids the need for transient transfection.
To identify antagonists, cell lines stably expressing hT2R8 and hT2R14, respectively, together with the promiscuous chimeric G16g44 protein were generated as described in previous patent applications. A high-throughput assay was established using the stable cell lines and FLIPR (Fluorescent Imaging Plate Reader). An agonist of hT2R8 or hT2R14 was used to activate the receptors up to 70-80% of their respective maximal activity. For hT2R8, the agonist used was andrographolide (200 […]); for hT2R14, it was aristolochic acid (3 μM). To identify antagonists, compounds with diverse chemical structures were added together with the agonist.

[4] = test system: hT2R63; assay: hT2R panel inhibition, transient HEK293 G16g44, agonist Caffeine 1 mM or Andrographolide 100 μM; type: cell-based, human; settings: compound at 25 μM
Description: as §1, §2

[5] = target: hT2R61 (Homo sapiens (Human), UniProt P59537); assay: hT2R panel inhibition, transient HEK293 G16g44, agonist Aristolochic Acid 25 nM; type: cell-based; settings: HEK293, compound at 25 μM; receptor activated to EC80 with agonist; read-out: inhibition of bitter receptor 61
Description: as §1, §2

[6] = receptor activated to EC80 with the corresponding agonist, read-out: screening result against bitter receptor 64
[7] = read-out: IC50 on hT2R14 bitter receptor

T1 sequence (Q9NYV8 whole entry): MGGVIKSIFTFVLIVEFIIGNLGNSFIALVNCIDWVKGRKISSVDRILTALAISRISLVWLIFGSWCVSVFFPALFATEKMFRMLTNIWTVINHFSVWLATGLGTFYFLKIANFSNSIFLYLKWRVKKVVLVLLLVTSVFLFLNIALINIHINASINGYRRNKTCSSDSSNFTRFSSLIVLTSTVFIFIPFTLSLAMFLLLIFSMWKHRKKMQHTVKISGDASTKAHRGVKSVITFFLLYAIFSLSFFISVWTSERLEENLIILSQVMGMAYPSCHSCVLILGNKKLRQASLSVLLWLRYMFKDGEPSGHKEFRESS
Chain of hT2R64 (P59538 whole entry): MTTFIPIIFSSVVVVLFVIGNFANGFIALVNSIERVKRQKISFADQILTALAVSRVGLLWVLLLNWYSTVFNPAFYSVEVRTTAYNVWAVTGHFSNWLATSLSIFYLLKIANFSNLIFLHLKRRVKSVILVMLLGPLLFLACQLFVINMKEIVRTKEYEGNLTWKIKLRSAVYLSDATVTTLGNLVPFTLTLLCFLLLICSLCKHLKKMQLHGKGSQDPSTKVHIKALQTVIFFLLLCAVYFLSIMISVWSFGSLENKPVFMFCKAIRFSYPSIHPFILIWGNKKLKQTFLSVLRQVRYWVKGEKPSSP
Chain of hT2R61 (P59537 whole entry): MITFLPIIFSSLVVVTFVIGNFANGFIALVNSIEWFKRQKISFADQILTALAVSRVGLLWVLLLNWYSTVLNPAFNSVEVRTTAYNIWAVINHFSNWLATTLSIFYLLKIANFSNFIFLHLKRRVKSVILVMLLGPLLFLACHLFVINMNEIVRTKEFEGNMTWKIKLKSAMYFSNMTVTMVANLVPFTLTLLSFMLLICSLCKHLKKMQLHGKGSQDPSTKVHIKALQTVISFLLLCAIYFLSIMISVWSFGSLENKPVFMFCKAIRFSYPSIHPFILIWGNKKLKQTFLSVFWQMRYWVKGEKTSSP

inhibition at 25 µM [1]: 20 to 40%
SMILES: Cc1cccc(C)c1NS(=O)(=O)c1ccc2c(c1)c(=O)n(C)c(=O)n2C [Example 6-8, N-(2,6-dimethylphenyl)-1,3-dimethyl-2,4-dioxo-1,2,3,4-tetrahydroquinazoline-6-sulfonamide]

inhibition at 25 µM [2, 6]: 20 to 40%
SMILES: COc1ccc(CN(Cc2ccccc2)S(=O)(=O)c2ccccc2C(=O)O)cc1 [Example 5-60, 2-(N-benzyl-N-(4-methoxybenzyl)sulfamoyl)benzoic acid]

pIC50 ([3]; Table C, read-out: hT2R14 IC50): 5.31
SMILES: Cc1cc(NC(=S)N(Cc2ccccc2C)CC2CCC(C(=O)O)CC2)ccc1Cl (centres unmarked) [Example 5-114, 4-((3-(4-chloro-3-methylphenyl)-1-(2-methylbenzyl)thioureido)methyl) cyclohexanecarboxylic acid]

pIC50 ([3]; Table D, read-out: hT2R14 IC50): 6.53
SMILES: Cc1nc(SCC(=O)N2CCCCC2)c2c(=O)n(C)c(=O)n(C)c2n1 [Example 6-24, 1,3,7-trimethyl-5-(2-oxo-2-(piperidin-1-yl)ethylthio)pyrimido[4,5-d]pyrimidine-2,4(1H,3H)-dione]

pIC50 ([3]; Table D, read-out: hT2R14 IC50): 5.21
SMILES: CNS(=O)(=O)c1ccc2[nH]c(=O)c(=O)[nH]c2c1 [Example 6-30, N-methyl-2,3-dioxo-1,2,3,4-tetrahydroquinoxaline-6-sulfonamide]

pIC50 ([3]; Table C, read-out: hT2R14 IC50): 5.78
SMILES: Nc1ccc(S(=O)(=O)N(Cc2ccc(F)cc2)CC2CCC(C(=O)O)CC2)cc1 (centres unmarked) [Example 5-125, 4-((4-amino-N-(4-fluorobenzyl)phenylsulfonamido)methyl) cyclohexanecarboxylic acid]

pIC50 ([3]; Table C, read-out: hT2R14 IC50): 5.27
SMILES: COc1ccc(CN(Cc2ccccc2C)S(=O)(=O)c2ccc(C(=O)O)cc2)cc1 [Example 5-129, 4-(N-(4-methoxybenzyl)-N-(2-methylbenzyl)sulfamoyl)benzoic acid]

pIC50 ([3]; Table B, read-out: hT2R14 IC50): 4.82
SMILES: CC(C)CN(CC(C)C)S(=O)(=O)c1ccc(C(=O)O)cc1 [Compound 5-9, 4-(N,N-diisobutylsulfamoyl)benzoic acid]

SMILES: N#Cc1ccc(CN(Cc2ccccc2)S(=O)(=O)c2ccc(C(=O)O)cc2)cc1 [Example 5-146, 4-(N-benzyl-N-(4-cyanobenzyl)sulfamoyl)benzoic acid]
pIC50 ([3]; Table C, read-out: hT2R14 IC50): 5.73

SMILES: N#Cc1ccccc1CN(Cc1ccccc1)S(=O)(=O)c1ccc(C(=O)O)cc1 [Example 5-147, 4-(N-benzyl-N-(2-cyanobenzyl)sulfamoyl)benzoic acid]
pIC50 ([3]; Table C, read-out: hT2R14 IC50): 5.33

pIC50 ([3]; Table D, read-out: hT2R14 IC50): 5.54
SMILES: N#C/C(=C\c1ccc2c(c1)OCO2)C(=O)Nc1nnc(-c2ccccc2)s1 [Example 6-14, (E)-3-(benzo[d][1,3]dioxol-5-yl)-2-cyano-N-(5-phenyl-1,3,4-thiadiazol-2-yl)acrylamide]

SMILES: O=C(O)c1ccc(S(=O)(=O)N(Cc2ccccc2)Cc2ccccc2F)cc1 [Example 5-134, 4-(N-benzyl-N-(2-fluorobenzyl)sulfamoyl)benzoic acid]
pIC50 ([3]; Table C, read-out: hT2R14 IC50): 5.21

SMILES: COc1ccccc1CN(Cc1ccccc1)S(=O)(=O)c1ccc(C(=O)O)cc1 [Example 5-133, 4-(N-benzyl-N-(2-methoxybenzyl)sulfamoyl)benzoic acid]
pIC50 ([3]; Table C, read-out: hT2R14 IC50): 5.30

pIC50 ([3]; Table D, read-out: hT2R14 IC50): 5.27
SMILES: COc1cc(/C=C2\SC(=S)N(CCC(=O)O)C2=O)cc(OC)c1 [Example 6-13, (Z)-3-(5-(3,5-dimethoxybenzylidene)-4-oxo-2-thioxothiazolidin-3-yl)propanoic acid]

pIC50 ([3]; Table D, read-out: hT2R14 IC50): 6.14
SMILES: CCc1nc(SCC(=O)N2CCC(C)CC2)c2c(=O)n(C)c(=O)n(C)c2n1 [Example 6-26, 7-ethyl-1,3-dimethyl-5-(2-(4-methylpiperidin-1-yl)-2-oxoethylthio)pyrimido[4,5-d]pyrimidine-2,4(1H,3H)-dione]

pIC50 [3, 7]: 6.34
SMILES: O=C(O)c1ccc(CN(Cc2cccc(F)c2)S(=O)(=O)c2ccc(O)cc2)cc1 [Example 5-45, 4-((N-(3-fluorobenzyl)-4-hydroxyphenylsulfonamido)methyl)benzoic acid]

pIC50 ([3]; Table C, read-out: hT2R14 IC50): 5.07
SMILES: O=C(O)C1CCC(CN(Cc2ccc(F)cc2)S(=O)(=O)c2cccnc2)CC1 (centres unmarked) [Example 5-52, 4-((N-(4-fluorobenzyl)pyridine-3-sulfonamido)methyl)cyclohexanecarboxylic acid]

pIC50 ([3]; Table D, read-out: hT2R14 IC50): 6.15
SMILES: Cn1c(=O)c2c(SCC(=O)NCc3ccccc3)ccnc2n(C)c1=O [Example 6-29, N-benzyl-2-(1,3-dimethyl-2,4-dioxo-1,2,3,4-tetrahydropyrido[2,3-d]pyrimidin-5-ylthio)acetamide]

pIC50 ([3]; Table C, read-out: hT2R14 IC50): 6.40
SMILES: O=C(O)c1ccc(CN(Cc2ccccc2)S(=O)(=O)c2ccc(Cl)cc2)cc1 [Example 5-120, 4-((N-benzyl-4-chlorophenylsulfonamido)methyl)benzoic acid]

inhibition at 25 µM [2, 6]: 40 to 60%
SMILES: COc1ccc(CN(C)S(=O)(=O)c2ccc(C(=O)O)cc2)cc1 [Example 5-29, 4-(N-(4-methoxybenzyl)-N-methylsulfamoyl)benzoic acid]
screening result against bitter receptor 63 ([4]; receptor activated to EC80 with the corresponding agonist): +++ (60% to 80% inhibition = +++)

pIC50 ([3]; Table D, read-out: hT2R14 IC50): 5.14
SMILES: Cn1c(=O)c2cc(S(=O)(=O)NC3CCCCC3)ccc2n(C)c1=O [Example 6-16, N-cyclohexyl-1,3-dimethyl-2,4-dioxo-1,2,3,4-tetrahydroquinazoline-6-sulfonamide]

SMILES: Cc1cccc(CN(Cc2ccccc2)S(=O)(=O)c2ccc(C(=O)O)cc2)c1 [Example 5-135, 4-(N-benzyl-N-(3-methylbenzyl)sulfamoyl)benzoic acid]
pIC50 ([3]; Table C, read-out: hT2R14 IC50): 5.64

pIC50 [3, 7]: 6.30 | inhibition at 25 µM [1]: > 80% | inhibition at 25 µM [5]: 40 to 60% | inhibition at 25 µM ([2]; receptor activated to EC80 with agonist, read-out: inhibition of bitter receptor 64): 20 to 40%
SMILES: N#C/C(=C\c1ccco1)C(=O)Nc1nnc(-c2ccccc2)s1 [Example 6-2, (E)-2-cyano-3-(furan-2-yl)-N-(5-phenyl-1,3,4-thiadiazol-2-yl)acrylamide]
inhibition of bitter receptor 63 ([4]; receptor activated to EC80 with agonist): + (20% to 40% inhibition = +)

pIC50 ([3]; Table C, read-out: hT2R14 IC50): 5.59
SMILES: CCOC(=O)C1CCC(CN(Cc2cccc(Br)c2)S(=O)(=O)c2ccc3c(c2)OCCO3)CC1 (centres unmarked) [Example 5-116, ethyl 4-((N-(3-bromobenzyl)-2,3-dihydrobenzo[b][1,4]dioxine-6-sulfonamido)methyl) cyclohexanecarboxylate]

SMILES: O=C(O)c1ccc(S(=O)(=O)N(Cc2ccccc2)Cc2ccccc2Cl)cc1 [Example 5-141, 4-(N-benzyl-N-(2-chlorobenzyl)sulfamoyl)benzoic acid]
pIC50 ([3]; Table C, read-out: hT2R14 IC50): 5.35

pIC50 ([3]; Table C, read-out: hT2R14 IC50): 5.45
SMILES: COc1ccc2c(c1)-c1ccccc1CN(S(=O)(=O)c1ccc(C(=O)O)cc1)C2 [Example 5-158, 4-(2-methoxy-5H-dibenzo[c,e]azepin-6(7H)-ylsulfonyl)benzoic acid]

pIC50 ([3]; Table C, read-out: hT2R14 IC50): 5.05
SMILES: COc1ccc(CN(CC2CCC(C(=O)O)CC2)C(=S)Nc2ccccc2OC)cc1 (centres unmarked) [Example 5-112, 4-((1-(4-methoxybenzyl)-3-(2-methoxyphenyl)thioureido)methyl) cyclohexanecarboxylic acid]

SMILES: Cc1ccccc1CN(Cc1ccccc1)S(=O)(=O)c1ccc(C(=O)O)cc1 [Example 5-140, 4-(N-benzyl-N-(2-methylbenzyl)sulfamoyl)benzoic acid]
pIC50 ([3]; Table C, read-out: hT2R14 IC50): 5.53

SMILES: CCc1ccc(CN(Cc2ccccc2)S(=O)(=O)c2ccc(C(=O)O)cc2)cc1 [Example 5-143, 4-(N-benzyl-N-(4-ethylbenzyl)sulfamoyl)benzoic acid]
pIC50 ([3]; Table C, read-out: hT2R14 IC50): 5.07

pIC50 ([3]; Table C, read-out: hT2R14 IC50): 5.65
SMILES: COc1ccc(CN(Cc2ccccc2)S(=O)(=O)c2cccc(OC)c2)cc1 [Example 5-122, N-benzyl-3-methoxy-N-(4-methoxybenzyl)benzenesulfonamide]
